# Measured values as given in publication PMC10733469, “Antiviral activity of chrysin and naringenin against porcine epidemic diarrhea virus infection” (Frontiers in Veterinary Science, 2023).
# Read-outs that look alike come from different tables or passages of the source.
# What was measured:
# Cytotoxicity assay (MTT) = format: cell-based; details: African green monkey
# Method: (§1) Then, different concentrations of compounds in DMEM were added to cells and incubated for another 48 h. […] MTT solution (10 μL per well) was added and incubated for another 4 h at 37°C, discarding the native compounds and using dimethyl sulfoxide (DMSO) to dissolve products for 10 min at 37°C. Microplate reader (BioTek, Winooski, VT, United States) was used to measure the 96-well plate at 570 nm, and the cell viability (%) was calculated by OD values ([23]). […] The percentage of relative cell viability was calculated according to the formula: […]%=[…]
# PEDV DY [1] = experiment: Antiviral activity assay (MTT, virus inhibition rate), PEDV DY; details: Porcine epidemic diarrhea virus, Vero C1008, read-out: IC50 PEDV DY
# PEDV [2] = experiment: Antiviral activity assay, PEDV strain not stated; details: Porcine epidemic diarrhea virus, read-out: IC50 values against PEDV
# PEDV CV777 [3] = experiment: Antiviral activity assay (MTT, virus inhibition rate), PEDV CV777; details: Porcine epidemic diarrhea virus, Vero C1008, read-out: IC50 PEDV CV777
# Vero E6 cells = experiment: Cytotoxicity assay (MTT); format: cell-based
# Method: as §1
# PEDV [4] = experiment: Viral quantification by qPCR at different time points; format: cell-based, porcine epidemic diarrhea virus; details: 24 hpi and 48 hpi, p < 0.001
# PEDV DY [5] = experiment: Virus titration (TCID50, Reed-Muench), PEDV DY; format: cell-based, porcine epidemic diarrhea virus; details: for virus titer vs virus control group: PEDV DY, 24, 36 and 48 hpi, p < 0.01
# PEDV CV777 [6] = experiment: Virus titration (TCID50, Reed-Muench), PEDV CV777; format: cell-based, porcine epidemic diarrhea virus; details: for virus titer vs virus control group: PEDV CV777, 24, 36 and 48 hpi, p < 0.01
# PEDV [7] = experiment: Time-of-addition assay, prophylactic stage (qPCR, western blot); format: cell-based, porcine epidemic diarrhea virus; details: for viral mRNA quantitation: qPCR; for expression level of PEDV N protein: western blot, concentration dependent
# PEDV [8] = experiment: Time-of-addition assay, post-viral entry stage (qPCR, western blot); format: cell-based, porcine epidemic diarrhea virus; details: for viral nucleic acid copy numbers vs control group: qPCR, p < 0.05; for expression level of PEDV N protein: western blot, concentration dependent
# PEDV [9] = experiment: Time-of-addition assay, viral entry stage (qPCR); format: cell-based, porcine epidemic diarrhea virus
# enterovirus 71 = test system: enterovirus 71; parameters: method as in PMID 24598537; details: replication of enterovirus 71, by inhibiting 3CLpro protein activity; cited from earlier work
# mice = details: animal tests; cited from earlier work
# PEDV [10] = experiment: Indirect immunofluorescence assay of viral load; details: Vero E6 cells, 48 h after infection, concentration dependent
# [11] = test system: human Huh 7 it-1 cell line; parameters: method as in doi:10.1088/1755-1315/462/1/012033; details: cited from earlier work
# DENV-2 [12] = test system: DENV-2; parameters: method as in doi:10.1088/1755-1315/462/1/012033; details: cited from earlier work
# DENV-2 [13] = test system: DENV-2; parameters: method as in doi:10.1186/1743-422X-8-560; details: 50 μg/mL after virus incubation; cited from earlier work
# [14] = Vero E6 cells, MTT, 48 h incubation, read-out: CC50
compound,measurement,setting,value
"CC1(C)[C@@H](O)CC[C@]2(C)[C@H]3C(=O)C=C4[C@@H]5C[C@@](C)(C(=O)O)CC[C@]5(C)CC[C@@]4(C)[C@]3(C)CC[C@@H]12 [Glycyrrhetinic acid, glycyrrhetinic acid]",CC50 at 48 h,Cytotoxicity assay (MTT),17.4 ± 4.61 µg/mL
same,IC50,PEDV DY [1],> 100 µg/mL
same,IC50,PEDV [2],> 100 µg/mL
same,IC50,PEDV CV777 [3],> 100 µg/mL
soy isoflavone,CC50,Vero E6 cells,53.03 ± 2.30 µg/mL
"CC1(C)CC[C@]2(C(=O)O)CC[C@]3(C)C(=CC[C@@H]4[C@@]5(C)CC[C@H](O)C(C)(C)[C@@H]5CC[C@]43C)[C@@H]2C1 [Oleanolic acid, oleanolic acid]",CC50 at 48 h,Cytotoxicity assay (MTT); [14],4.05 ± 3.91 µg/mL
same,IC50,PEDV DY [1],> 100 µg/mL
same,IC50,PEDV [2],> 100 µg/mL
same,IC50,PEDV CV777 [3],> 100 µg/mL
"O=c1cc(-c2ccccc2)oc2cc(O)cc(O)c12 [Chrysin, chrysin]",CC50 at 48 h,Cytotoxicity assay (MTT),83.6 ± 2.12 µg/mL
same,virus copy numbers vs control group,PEDV [4]; 50 μg/mL,significantly lower than in the control group
same,virus titer vs virus control group,PEDV DY [5],significantly lower
same,virus titer vs virus control group,PEDV CV777 [6],significantly lower
same,viral mRNA quantitation,PEDV [7]; 12.5 μg/mL,3.87 × 10^6 copies/μL
same,viral mRNA quantitation,PEDV [7]; 25 μg/mL,1.78 × 10^6 copies/μL
same,viral mRNA quantitation,PEDV [7]; 50 μg/mL,1.19 × 10^6 copies/μL
same,expression level of PEDV N protein,PEDV [7],significantly inhibit
same,viral nucleic acid copy numbers vs control group,PEDV [8],significantly lower than those in the control group
same,expression level of PEDV N protein,PEDV [8],significantly inhibit
same,"inhibitory effect, nucleic acid copy numbers vs control group",PEDV [9],did not show significant inhibitory effects
same,IC50,enterovirus 71,24.1 µM
same,toxic effects,mice,no toxic effects on mice
same,green fluorescence of viral proteins (IFA),PEDV [10],diminished to varying extents
same,IC50,PEDV DY [1],2.48 ± 0.59 µg/mL
same,IC50,PEDV CV777 [3],2.19 ± 2.25 µg/mL
O=c1c(O)c(-c2ccc(O)c(O)c2)oc2cc(O)cc(O)c12 [quercetin],CC50,[11],217.113 µg/mL
same,IC50 against DENV-2,DENV-2 [12],18.41 µg/mL
same,IC50,PEDV [2],> 100 µg/mL
"COC(=O)C1=CO[C@@H](O[C@@H]2O[C@H](CO)[C@@H](O)[C@H](O)[C@H]2O)[C@@H]2C(CO)=CC[C@H]12 [Geniposide, geniposide]",CC50 at 48 h,Cytotoxicity assay (MTT); [14],10.4 ± 2.03 µg/mL
same,IC50,PEDV DY [1],> 100 µg/mL
same,IC50,PEDV [2],> 100 µg/mL
same,IC50,PEDV CV777 [3],> 100 µg/mL
"O=C1C[C@@H](c2ccc(O)cc2)Oc2cc(O)cc(O)c21 [Naringenin, naringenin]",CC50 at 48 h,Cytotoxicity assay (MTT); [14],61.9 ± 0.97 µg/mL
same,virus copy numbers vs control group,PEDV [4]; 12.5 μg/mL,significantly lower than in the control group
same,virus titer vs virus control group,PEDV DY [5],significantly lower
same,virus titer vs virus control group,PEDV CV777 [6],significantly lower
same,viral mRNA quantitation,PEDV [7]; 3.13 μg/mL,4.79 × 10^6 copies/μL
same,viral mRNA quantitation,PEDV [7]; 6.25 μg/mL,3.21 × 10^6 copies/μL
same,viral mRNA quantitation,PEDV [7]; 12.5 μg/mL,2.17 × 10^6 copies/μL
same,expression level of PEDV N protein,PEDV [7],significantly inhibit
same,viral nucleic acid copy numbers vs control group,PEDV [8],significantly lower than those in the control group
same,expression level of PEDV N protein,PEDV [8],significantly inhibit
same,"inhibitory effect, nucleic acid copy numbers vs control group",PEDV [9],did not show significant inhibitory effects
same,reduction of DENV-2 RNA levels,DENV-2 [13],50%
same,green fluorescence of viral proteins (IFA),PEDV [10],diminished to varying extents
same,IC50,PEDV DY [1],4.5 ± 2.25 µg/mL
same,IC50,PEDV CV777 [3],4.39 ± 0.96 µg/mL
"NC(=O)c1ncn([C@@H]2O[C@H](CO)[C@@H](O)[C@H]2O)n1 [Ribavirin, ribavirin, reference compound]",CC50 at 48 h,Cytotoxicity assay (MTT),249 ± 4.2 µg/mL
same,virus titer vs virus control,"PEDV DY [5]; PEDV DY, 36 h, p < 0.05",significantly lower
same,virus titer vs virus control,"PEDV CV777 [6]; PEDV CV777, 36 h, p < 0.05",significantly lower
same,IC50,PEDV DY [1],71.4 ± 3.78 µg/mL
same,IC50,PEDV CV777 [3],88 ± 3.78 µg/mL
